In patent US20260048047A1, “SMALL-MOLECULE ACTIVATORS OF MYCOBACTERIUM TUBERCULOSIS ADENYLYL CYCLASE” (priority 2022, published 2026):

Test system: M. tuberculosis
Experiment: Extracellular activity against M. tuberculosis in cholesterol media (Alamar Blue reduction assay)
Type: cell-based, Mycobacterium tuberculosis
Conditions: Mycobacterium tuberculosis, 240 h, 7H12-Cholesterol media, 10 days; read-out: Cholesterol broth: alamar blue--EC50

Row | Structure (SMILES) | EC50
1 | Cc1noc(CC(=O)N2CCC(c3nc(C4CCC(C(F)(F)F)CC4)no3)CC2)n1 (stereo not drawn) [Compound 37, 2-(3-methyl-1,2,4-oxadiazol-5-yl)-1-(4-(3-(4-(trifluoromethyl)cyclohexyl)-1,2,4-oxadiazol-5-yl)piperidin-1-yl)ethan-1-one] | 7.02 µM
2 | Cc1noc(CC(=O)N2CCC(c3nc(-c4ccc(Cl)c(OC(F)(F)F)c4)no3)CC2)n1 [Compound 38] | 1.05 µM
3 | Cc1noc(CC(=O)N2CCC(c3nc(-c4ccc(OC(F)(F)F)cc4)no3)CC2)n1 [Compound 39, 2-(3-methyl-1,2,4-oxadiazol-5-yl)-1-(4-(3-(4-(trifluoromethoxy)phenyl)-1,2,4-oxadiazol-5-yl)piperidin-1-yl)ethan-1-one] | 0.657 µM
4 | Cc1noc(CC(=O)N2CCC(c3nc(C4CCC(F)(F)C4)no3)CC2)n1 (stereo not drawn) [Compound 40, 1-(4-(3-(3,3-difluorocyclopentyl)-1,2,4-oxadiazol-5-yl)piperidin-1-yl)-2-(3-methyl-1,2,4-oxadiazol-5-yl)ethan-1-one] | > 25 µM
5 | Cc1noc(CC(=O)N2CCC(c3nc(C4CCC(F)(F)CC4)no3)CC2)n1 [Compound 41, 1-(4-(3-(4,4-difluorocyclohexyl)-1,2,4-oxadiazol-5-yl)piperidin-1-yl)-2-(3-methyl-1,2,4-oxadiazol-5-yl)ethan-1-one] | > 10 µM
6 | Cc1noc(CC(=O)N2CCC(O)(c3nc(C4CCC(F)(F)CC4)no3)CC2)n1 [Compound 42, 1-(4-(3-(4,4-difluorocyclohexyl)-1,2,4-oxadiazol-5-yl)-4-hydroxypiperidin-1-yl)-2-(3-methyl-1,2,4-oxadiazol-5-yl)ethan-1-one] | > 10 µM
7 | Cc1noc(CC(=O)N2CCC(c3noc(C45CC(F)(C4)C5)n3)CC2)n1 [Compound 43, 1-(4-(5-(3-fluorobicyclo[1.1.1]pentan-1-yl)-1,2,4-oxadiazol-3-yl)piperidin-1-yl)-2-(3-methyl-1,2,4-oxadiazol-5-yl)ethan-1-one] | > 25 µM
8 | Cc1noc(CC(=O)N2CCC(c3nc(-c4ccc(Cl)c(F)c4)no3)CC2)n1 [Compound 44, 1-(4-(3-(4-chloro-3-fluorophenyl)-1,2,4-oxadiazol-5-yl)piperidin-1-yl)-2-(3-methyl-1,2,4-oxadiazol-5-yl)ethan-1-one] | 0.229 µM
9 | Cc1noc(CC(=O)N2CCC(c3nc(-c4cc(F)cc(Cl)c4)no3)CC2)n1 [Compound 45, 1-(4-(3-(3-chloro-5-fluorophenyl)-1,2,4-oxadiazol-5-yl)piperidin-1-yl)-2-(3-methyl-1,2,4-oxadiazol-5-yl)ethan-1-one] | 2.19 µM
10 | Cc1noc(CC(=O)N2CCC(c3nc(-c4ccc(F)cc4Cl)no3)CC2)n1 [Compound 46, 1-(4-(3-(2-chloro-4-fluorophenyl)-1,2,4-oxadiazol-5-yl)piperidin-1-yl)-2-(3-methyl-1,2,4-oxadiazol-5-yl)ethan-1-one] | 2.97 µM
11 | Cc1noc(CC(=O)N2CCC(c3nc(-c4ccc(F)c(F)c4)no3)CC2)n1 [Compound 47, 1-(4-(3-(3,4-difluorophenyl)-1,2,4-oxadiazol-5-yl)piperidin-1-yl)-2-(3-methyl-1,2,4-oxadiazol-5-yl)ethan-1-one] | 1.45 µM
12 | Cc1noc(CC(=O)N2CCC(c3nc(-c4ccc(F)c(OC(F)(F)F)c4)no3)CC2)n1 [Compound 48, 1-(4-(3-(4-fluoro-3-(trifluoromethoxy)phenyl)-1,2,4-oxadiazol-5-yl)piperidin-1-yl)-2-(3-methyl-1,2,4-oxadiazol-5-yl)ethan-1-one] | 0.73 µM
13 | Cc1noc(CC(=O)N2CCC(c3nc(-c4ccc(F)cc4)no3)CC2)n1 [Compound 49, 1-(4-(3-(4-fluorophenyl)-1,2,4-oxadiazol-5-yl)piperidin-1-yl)-2-(3-methyl-1,2,4-oxadiazol-5-yl)ethan-1-one] | 1.44 µM
14 | Cc1noc(CC(=O)N2CCC(c3cc(-c4ccc(F)cc4)no3)CC2)n1 [Compound 50, 1-(4-(3-(4-fluorophenyl)isoxazol-5-yl)piperidin-1-yl)-2-(3-methyl-1,2,4-oxadiazol-5-yl)ethan-1-one] | > 10 µM
15 | Cc1noc(CC(=O)N2CCC(n3nnc(-c4ccc(F)cc4)n3)CC2)n1 [Compound 51, 1-(4-(5-(4-fluorophenyl)-2H-tetrazol-2-yl)piperidin-1-yl)-2-(3-methyl-1,2,4-oxadiazol-5-yl)ethan-1-one] | 7.64 µM
16 | Cc1noc(CC(=O)N2CCC(c3nc(-c4ccc(F)cc4)co3)CC2)n1 [Compound 52, 1-(4-(4-(4-fluorophenyl)oxazol-2-yl)piperidin-1-yl)-2-(3-methyl-1,2,4-oxadiazol-5-yl)ethan-1-one] | > 10 µM
17 | Cc1noc(CC(=O)N2CCC(c3noc(-c4ccc(F)cc4)n3)CC2)n1 [Compound 53, 1-(4-(5-(4-fluorophenyl)-1,2,4-oxadiazol-3-yl)piperidin-1-yl)-2-(3-methyl-1,2,4-oxadiazol-5-yl)ethan-1-one] | > 10 µM
18 | Cc1noc(CC(=O)N2CCC(O)(c3nc(-c4ccc(F)cc4)no3)CC2)n1 [Compound 54, 1-(4-(3-(4-fluorophenyl)-1,2,4-oxadiazol-5-yl)-4-hydroxypiperidin-1-yl)-2-(3-methyl-1,2,4-oxadiazol-5-yl)ethan-1-one] | > 10 µM

Row | Structure (SMILES) | EC50
19 | Cc1nocc1CC(=O)N1CCC(c2nc(C3CCCCC3)no2)CC1 [Compound 55, 1-(4-(3-cyclohexyl-1,2,4-oxadiazol-5-yl)piperidin-1-yl)-2-(3-methylisoxazol-4-yl)ethan-1-one] | > 25 µM
20 | Cc1nocc1CC(=O)N1CCC(n2nnc(C3CCCCC3)n2)CC1 [Compound 56, 1-(4-(5-cyclohexyl-2H-tetrazol-2-yl)piperidin-1-yl)-2-(3-methylisoxazol-4-yl)ethan-1-one] | > 25 µM
21 | Cc1nocc1CC(=O)N1CCC(c2nc(-c3ccc(Cl)c(Cl)c3)no2)CC1 [Compound 57, 1-(4-(3-(3,4-dichlorophenyl)-1,2,4-oxadiazol-5-yl)piperidin-1-yl)-2-(3-methylisoxazol-4-yl)ethan-1-one] | 0.691 µM
22 | Cc1nocc1CC(=O)N1CCC(c2nc(-c3ccc(F)cc3)no2)CC1 [Compound 58, 1-(4-(3-(4-fluorophenyl)-1,2,4-oxadiazol-5-yl)piperidin-1-yl)-2-(3-methylisoxazol-4-yl)ethan-1-one] | 2.15 µM
23 | Cc1nonc1CC(=O)N1CCC(n2cc(C(=O)N3CCOCC3)nn2)CC1 [Compound 60, 2-(4-methyl-1,2,5-oxadiazol-3-yl)-1-(4-(4-(morpholine-4-carbonyl)-1H-1,2,3-triazol-1-yl)piperidin-1-yl)ethan-1-one] | > 10 µM
24 | Cc1nonc1CC(=O)N1CCC(c2nc(C3CC3)no2)CC1 [Compound 61, 1-(4-(3-cyclopropyl-1,2,4-oxadiazol-5-yl)piperidin-1-yl)-2-(4-methyl-1,2,5-oxadiazol-3-yl)ethan-1-one] | > 10 µM
25 | Cc1nonc1CC(=O)N1CCC(n2nnc(C3CC3)n2)CC1 [Compound 62, 1-(4-(5-cyclopropyl-2H-tetrazol-2-yl)piperidin-1-yl)-2-(4-methyl-1,2,5-oxadiazol-3-yl)ethan-1-one] | ≥ 10 µM
26 | Cc1nonc1CC(=O)N1CCC(c2nc(C3CC4CCC3C4)no2)CC1 (stereo not drawn) [Compound 64, 1-(4-(3-(bicyclo[2.2.1]heptan-2-yl)-1,2,4-oxadiazol-5-yl)piperidin-1-yl)-2-(4-methyl-1,2,5-oxadiazol-3-yl)ethan-1-one] | 0.447 µM
27 | Cc1nonc1CC(=O)N1CCC(c2noc(C3CC34CCC4)n2)CC1 (stereo not drawn) [Compound 65, 2-(4-methyl-1,2,5-oxadiazol-3-yl)-1-(4-(5-(spiro[2.3]hexan-1-yl)-1,2,4-oxadiazol-3-yl)piperidin-1-yl)ethan-1-one] | 15 µM
28 | Cc1nonc1CC(=O)N1CCC(c2nc(C3CCC3)no2)CC1 [Compound 66, 1-(4-(3-cyclobutyl-1,2,4-oxadiazol-5-yl)piperidin-1-yl)-2-(4-methyl-1,2,5-oxadiazol-3-yl)ethan-1-one] | > 25 µM
29 | Cc1nonc1CC(=O)N1CCC(c2nc(C3CCC4(CC3)OCCO4)no2)CC1 [Compound 67, 1-(4-(3-(1,4-dioxaspiro[4.5]decan-8-yl)-1,2,4-oxadiazol-5-yl)piperidin-1-yl)-2-(4-methyl-1,2,5-oxadiazol-3-yl)ethan-1-one] | > 10 µM
30 | Cc1nonc1CC(=O)N1CCC(c2nc(C3CCC4(CC3)CC4)no2)CC1 [Compound 68, 2-(4-methyl-1,2,5-oxadiazol-3-yl)-1-(4-(3-(spiro[2.5]octan-6-yl)-1,2,4-oxadiazol-5-yl)piperidin-1-yl)ethan-1-one] | 1.86 µM
31 | Cc1nonc1CC(=O)N1CCC(c2noc(C3CCC4(CC3)CC4)n2)CC1 [Compound 69, 2-(4-methyl-1,2,5-oxadiazol-3-yl)-1-(4-(5-(spiro[2.5]octan-6-yl)-1,2,4-oxadiazol-3-yl)piperidin-1-yl)ethan-1-one] | > 25 µM
32 | Cc1nonc1CC(=O)N1CCC(c2nc(C3CCCC3)no2)CC1 [Compound 70, 1-(4-(3-cyclopentyl-1,2,4-oxadiazol-5-yl)piperidin-1-yl)-2-(4-methyl-1,2,5-oxadiazol-3-yl)ethan-1-one] | 3.68 µM
33 | Cc1nonc1CC(=O)N1CCC(n2nnc(C3CCCC3)n2)CC1 [Compound 71, 1-(4-(5-cyclopentyl-2H-tetrazol-2-yl)piperidin-1-yl)-2-(4-methyl-1,2,5-oxadiazol-3-yl)ethan-1-one] | > 25 µM
34 | Cc1nonc1CC(=O)N1CCC(c2nc(C3CCCC4CC43)no2)CC1 (stereo not drawn) [Compound 72, 1-(4-(3-(bicyclo[4.1.0]heptan-2-yl)-1,2,4-oxadiazol-5-yl)piperidin-1-yl)-2-(4-methyl-1,2,5-oxadiazol-3-yl)ethan-1-one] | > 10 µM
35 | Cc1nonc1CC(=O)N1CCC(c2nc(C3CCCCC3)no2)CC1 [Compound 73, 1-(4-(3-cyclohexyl-1,2,4-oxadiazol-5-yl)piperidin-1-yl)-2-(4-methyl-1,2,5-oxadiazol-3-yl)ethan-1-one] | 0.674 µM
36 | Cc1nonc1CC(=O)N1CCC(n2nnc(C3CCCCC3)n2)CC1 [Compound 74, 1-(4-(5-cyclohexyl-2H-tetrazol-2-yl)piperidin-1-yl)-2-(4-methyl-1,2,5-oxadiazol-3-yl)ethan-1-one] | 2.07 µM
